Entries after “also recorded” stand apart in the source; their conditions may differ.
Columns and labels:
[1] = MSOT phantom measurement of photoacoustic signal; assay type: physicochemical; conditions: 680-900 nm; for Relative PA Quantum yield (ϕP): gradient of unmixed PA signal vs concentration in phantom, arbitrary ratios; for PA signal / photoacoustic activity in phantoms: phantom, compared among the 5 photosensitizers
Protocol: In order to verify the PA activity of the photosensitizers under controlled conditions, phantom measurements for all the contrast agents were performed, in the 680-900 nm wavelength range, each at 5 different concentrations.
All phantom and in vivo mouse imaging experiments were performed using a real-time multispectral optacoustic tomographic (MSOT) imaging system; inVision 128 (iThera Medical GmbH, Neuherberg, Germany).
The phantom was made of polyurethane, cylindrical in shape with a diameter of 2 cm, which was specially designed to mimic the shape, size and optical properties of the mouse (iThera Medical GmbH, Neuherberg, Germany). In addition, it had 2 inner cylindrical channels, each with diameter of 3 mm, one for holding the control medium and the other for holding the dissolved contrast agent in the same medium, to measure PA signal compared to the control medium, as shown in FIG. 2A.
Optical excitation was provided by an optical parametric oscillator (OPO) with a tunable near infra-red (NIR) wavelength range from 680 nm to 980 nm, which is in turn pumped by a Q-switched Nd:YAG laser with a pulse duration of 10 ns and repetition rate of 10 Hz. Light was delivered by a fiber bundle divided into 10 output arms to illuminate the sample from multiple angles around the imaging plane.
Photoacoustic (PA) signals were acquired using a 128-element concave transducer array spanning a circular arc of 270°. […] One transverse image slice was acquired from each laser pulse, resulting in a frame-rate of 10 Hz.
During image acquisition, the sample is translated through the transducer array along its axis across the volume ROI, in order to capture the corresponding transverse image slices. Data from multiple transverse slices across the channel portion which contains the probe and control were recorded. Excitation wavelength scan from 680 to 900 nm with an interval of 10 nm for each transverse slice was applied, and the averaged PA signals from 10 frames for each wavelength and position were recorded.
In addition, PA signal for each contrast agent was spectrally unmixed via linear regression. This allowed isolation of the individual contribution of the contrast agent of interest that may be plotted as a function of concentration, which in turn was used to produce a straight line of best fit based on least-squares regression, for each contrast agent.
This gradient was thereby defined by the inventors as a form of relative PA quantum yield (ϕP), a kind of measure of the efficiency of the conversion of light absorption into photoacoustic signal. This is analogous to fluorescence quantum yield (ϕ), which measures efficiency of the conversion of light absorption into fluorescence emission.
The numbers shown are not absolute values, but arbitrary ratios, which reflect the relative PA strength of one compound against that of another.

[2] = literature value; cited from earlier work
[3] = Concentration of drug in the blood calculated from pre-clinical in vivo dose from literature; conditions: assuming volume of blood in mice 2 ml
[4] = literature value; cited from earlier work; remark: listed apart in the source
[5] = In vivo longitudinal MSOT monitoring of probe biodistribution in mouse xenograft model; conditions: 0.21 mg/kg tail vein; for time of peak accumulation post injection: tumor site and organs
Protocol: For in vivo imaging, ultrasound gel was applied on the mouse skin surface, and measurements were recorded in temperature-controlled water for good acoustic coupling. An animal holder with a thin polyethylene membrane was used to prevent direct contact between the mouse and the water.
Xenograft mice models were established by injecting subcutaneously into the right flank of mouse, 0.2 mL of cell suspension containing about 5×10^6 to 6×10^6 MCF-7, a human metastatic breast cancer cell line or OSCC, a human oral squamous carcinoma cell line and matrigel (BD biosciences) in 1:1 volume ratio. When the tumor volume reached a palpable size, the mouse was used for in vivo PA imaging.
ZnPc at a dosage of 0.21 mg/kg was injected via a catheter into the tail vein of a subcutaneous tumor bearing mice anaesthetized under isoflurane and the probe biodistribution or uptake was monitored over time in various organs of liver, spleen, kidneys, intestines and tumor using photoacoustic imaging. Before image acquisition, a volume ROI consisting of transverse slices with a step size of 0.3 mm spanning from the liver to the lower abdomen was selected by manual inspection of live MSOT images, and the 6 laser excitation wavelengths of 680, 700, 750, 800, 850 and 900 nm were selected for correspondence with the major turning points in the absorption spectra of ZnPc, oxy-haemoglobin and deoxy-haemoglobin. Multispectral imaging was then performed with 10 signal averages per wavelength per transverse slice, before injection, during injection and 1, 3, 5, and 24 hr post-injection.
Images were reconstructed using a model-based approach as discussed in Rosenthal, A. et al. (Rosenthal, A. et al., Fast semi-analytical model-based acoustic inversion for quantitative optoacoustic tomography. IEEE Trans. Med. Imag. 29, 1275-1285 (2010)) for offline analysis. After image reconstruction, spectral unmixing was performed to resolve individual components from different chromophores in the system. For each pixel in the image, the method fits the total measured optoacoustic spectrum to the known absorption spectra of the individual chromophores, based on least-squares linear regression.
A volume ROI consisting of transverse slices spanning from the liver to the lower abdomen was scanned, and maximum intensity projections (MIPs) based on these slices were constructed for image analysis.
For the later time points, this background subtraction was not possible, as the animal was removed and placed in the MSOT system repeatedly, with repositioning, in order to avoid overdosage of isoflurane for the entire 24-hour duration.

[6] = UV absorbance measurement 680-900 nm; assay type: physicochemical; conditions: 680 nm to 900 nm, normalized absorbance, compared among the 5 photosensitizers
Protocol: In order to obtain information about optical absorption properties of the contrast agents, their wavelength-dependent absorption spectra at known concentrations were measured using a spectrophotometer.
In the experiments carried out, wavelength-dependent absorption spectrum of the contrast agents was measured from 680 nm to 900 nm using a spectrophotometer (DU 730, Beckman Coulter), which in turn was used as an input spectrum for multispectral post-processing of photoacoustic signals.
The spectra were normalized to obtain the concentration-independent normalized absorbance (directly proportional to extinction coefficient) as a function of wavelength for each contrast agent (FIG. 1), based on Beer-Lambert law: A(λ)=ln(Io/I)=ε(λ)cl
where A(λ) is the measured wavelength-dependent absorbance, I0 is the incident light intensity, I is the transmitted light intensity, ε(2) is the wavelength-dependent extinction coefficient of the contrast agent, c is the concentration of the contrast agent and l is the path length of the quartz cuvette (1 cm).

Compound: CN(C)c1ccc2nc3ccc(=[N+](C)C)cc-3sc2c1 [MB, methylene blue]
- Relative PA Quantum yield (ϕP) [1]: 0.029
- Fluorescence Quantum Yield (ϕF) [2]: 0.02 [23]
- Concentration of drug in the blood [3]: 1337.00 µM
- Singlet Oxygen Quantum Yield (ϕΔ) [4]: 0.55 [23]

Compound: C=CC1=C(C)c2cc3[nH]c(cc4nc(cc5[nH]c(cc1n2)c(C)c5CCC(=O)O)C(CCC(=O)O)=C4C)c(C)c3C=C [PpIX, protoporphyrin IX]
- Concentration of drug in the blood [3]: 88.88 µM

Compound: O=C1C(=C2C(O)=CC(=[N+](Cc3ccccc3)Cc3ccccc3)C=C2O)C([O-])=C1c1c(O)cc(N(Cc2ccccc2)Cc2ccccc2)cc1O [Sq, 2,4-bis[4-(N,N-dibenzylamino)-2,6-dihydroxyphenyl]squaraine]
- Relative PA Quantum yield (ϕP) [1]: 0.18
- Fluorescence Quantum Yield (ϕF) [2]: 0.037 [27]
- Concentration of drug in the blood [3]: 181.40 µM
- Singlet Oxygen Quantum Yield (ϕΔ) [4]: 0.61-0.74 [28]

Compound: [Zn+2].c1ccc2c(c1)-c1nc-2nc2[n-]c(nc3nc([n-]c4nc(n1)-c1ccccc1-4)-c1ccccc1-3)c1ccccc21 [ZnPc, zinc phthalocyanine]
- Relative PA Quantum yield (ϕP) ([1]; listed as zinc pthalocyanine): highest relative photoacoustic quantum yield
- PA signal / photoacoustic activity in phantoms [1]: strongest PA signal in phantoms
- PA signal / photoacoustic activity in phantoms ([1]; listed as zinc phthalocyanine): highest photoacoustic activity
- PA signal / photoacoustic activity in phantoms ([1]; listed as zinc pthalocyanine): strongest photoacoustic signal
- Fluorescence Quantum Yield (ϕF) [2]: 0.06 [23]
- tmax, time of peak concentrations ([5]; MIPs t=10 to 60 mins): 1 h
- time to clearance ([5]; MSOT signal): ≤ 24 h
- organ biodistribution of MSOT signal ([5]; liver, spleen, kidneys, intestines, tumor): strong in vivo MSOT signal of ZnPc was detected in the reticuloendothelial system (liver, spleen), intestines and tumor site within the first hour after injection; also recorded: high concentrations were found in the liver and intestines up to the 3-hour time point, whereas renal signal was much weaker in comparison
- time of peak tumor-to-muscle ratio of MSOT signal ([5]; n=4): 1 h
- time to localization at the tumor post injection ([5]; tumor bearing mice): ≤ 10 min
- time of peak accumulation post injection [5]: 1 h
- time of peak accumulation post injection ([5]; listed as zinc phthalocyanine): around 1 hour
- Concentration of drug in the blood [3]: 3.63 µM
- Singlet Oxygen Quantum Yield (ϕΔ) [4]: 0.62 [23]
- overall absorbance in the NIR region [6]: highest overall absorbance

Compound: chlorin e6 [Ce6]
- Relative PA Quantum yield (ϕP) [1]: 0.036
- Fluorescence Quantum Yield (ϕF) [2]: 0.19 [23]
- Concentration of drug in the blood [3]: 41.90 µM
- Singlet Oxygen Quantum Yield (ϕΔ) [4]: 0.65 [23]

From US10398315B2, “Method of imaging living tissue” (Agency for Science, Technology and Research, priority 2013, dated 2019)
